Several values for one entry are separate records, joined by “and”; a condition that tells them apart may be missing. Identical values can stand only once. After the bases stand the sugars from the 5' end (letter, count) and the backbone: PS all phosphorothioate, else s phosphorothioate and o phosphodiester by linkage. Methylation of C is not given here. [mop] = methoxypropylphosphonate linkage; e = 2'-O-(2-methoxyethyl) (MOE); k = constrained ethyl (cEt); d = 2'-deoxy (DNA)
Target: IRF5
Conditions: ASO

| Sequence | target mRNA inhibition (KARPAS-229, 4 µM) | other results |
| --- | --- | --- |
| TGAGTCATGGGCTGAG (sugars kkdddddddddkdkdk, PS) | 12% | – |
| TGAGTCATGGGCTGAG (sugars kkkddddddddkdkdk, PS) | 3% | – |
| TGAGTCTCAAACCAGG (sugars k2 d9 e3 k2, PS) | 0% | – |
| TGAGTCTCAAACCAGG (sugars kkddddddddddkeke, PS) | 7% | – |
| TGCACTGACACAGGCG (sugars k2 d9 e3 k2, PS) | 18% | – |
| TGCACTGACACAGGCG (sugars kkdddddddddkekek, PS) | 0% | – |
| TGCTCTAAACCATTCT (sugars k3 d10 k3, PS) | 0% | – |
| TGTCACATCTCCACAT (sugars kdddddddddkekeke, PS) | 0% | – |
| TGTCTAGTGTCATGGA (sugars k2 d9 e3 k2, linkages s3 [mop]1 s11) | – | target mRNA inhibition (A-431, 0.00412 µM): 0%; target mRNA inhibition (A-431, 0.01225 µM): 15%; target mRNA inhibition (A-431, 0.03704 µM): 10%; target mRNA inhibition (A-431, 0.11111 µM): 39%; target mRNA inhibition (A-431, 0.33333 µM): 58%; target mRNA inhibition (A-431, 1 µM): 75% |
| TGTCTAGTGTCATGGA (sugars kkddddddddddkeke, PS) | 44% | – |
| TGTCTAGTGTCATGGA (sugars kkddddddddkekekk, PS) | 10% | – |
| TGTCTAGTGTCATGGA (sugars kkddkddddddeeekk, PS) | – | target mRNA inhibition (A-431, 0.00412 µM): 0%; target mRNA inhibition (A-431, 0.01225 µM): 0%; target mRNA inhibition (A-431, 0.03704 µM): 9%; target mRNA inhibition (A-431, 0.11111 µM): 17%; target mRNA inhibition (A-431, 0.33333 µM): 13%; target mRNA inhibition (A-431, 1 µM): 29% |
| TGTCTAGTGTCATGGA (sugars kkdkdddddddeeekk, PS) | – | target mRNA inhibition (A-431, 0.00412 µM): 0%; target mRNA inhibition (A-431, 0.01225 µM): 5%; target mRNA inhibition (A-431, 0.03704 µM): 6%; target mRNA inhibition (A-431, 0.11111 µM): 24%; target mRNA inhibition (A-431, 0.33333 µM): 23%; target mRNA inhibition (A-431, 1 µM): 41% |
| TGTCTAGTGTCATGGA (sugars kkkddddddddkekek, PS) | 57% | – |
| TGTGACTGTATTACCT (sugars k3 d10 k3, PS) | 81% and 66% | target mRNA inhibition (KARPAS-229, 0.44444 µM): 38%; target mRNA inhibition (KARPAS-229, 1.33333 µM): 44%; target mRNA inhibition (KARPAS-229, 12 µM): 78% |
| TGTTGAATTTTGTGAC (sugars k3 d10 k3, PS) | 26% | – |
| TTATCTCCGTCCTGGC (sugars kkddddddddddkeke, PS) | 0% | – |
| TTATCTCCGTCCTGGC (sugars kkdddddddddkekek, PS) | 0% | – |
| TTATCTCCGTCCTGGC (sugars kkddddddddkekekk, PS) | 0% | – |
| TTATTTCTGCTCCAGG (sugars kkkdddddddddkeke, PS) | 43% | – |
| TTATTTCTGCTCCAGG (sugars kkkddddddddkdkdk, PS) | 57% and 67% | target mRNA inhibition (KARPAS-229, 0.44444 µM): 42%; target mRNA inhibition (KARPAS-229, 1.33333 µM): 62%; target mRNA inhibition (KARPAS-229, 12 µM): 79% |
| TTCCAATTTTGCATTC (sugars k3 d10 k3, PS) | 39% | – |
| TTCTTGGACTCTCAAG (sugars kddddddddddkekek, PS) | 0% | – |
| TTCTTGGACTCTCAAG (sugars kdddddddddkekeke, PS) | 0% | – |
| TTGTCTAGTGTCATGG (sugars k3 d9 k3 e1, PS) | 20% | – |
| TTGTCTAGTGTCATGG (sugars kddddddddddkekek, PS) | 44% | – |
| TTTGTGACTGTATTAC (sugars k3 d10 k3, PS) | 50% | – |
